Reference: ChEMBL document CHEMBL5338747, “Discovery of Quaternized Pyridine-Thiazole-Pleuromutilin Derivatives with Broad-Spectrum Antibacterial and Potent Anti-MRSA Activity” (J Med Chem, 2023)
Activity calls are given as the source filed them. No cut-off for these calls is given here.

Key:
Cell membrane [1] = assay: Disruption of bacterial cell membrane in methicillin-resistant Staphylococcus aureus ATCC 33591 incubated for 4 hrs by FESEM analysis; assay type: subcellular
Escherichia coli [2] = assay: Disruption of biofilm formation in Escherichia coli ATCC 25922 assessed as inhibition of biofilm formation at 4XMIC measured after 24 hrs by crystal violet staining based analysis; assay type: functional
Cell membrane [3] = assay: Disruption of bacterial cell membrane in Escherichia coli ATCC 25922 assessed as increase in number of surface folds and atrophy at MIC incubated for 4 hrs by FESEM analysis
[4] = Aqueous solubility of the compound in physiological saline measured after 12 hrs by UV spectrophotometric analysis; assay type: physicochemical
Enterococcus = assay: Antibacterial activity against vancomycin-resistant Enterococcus 80 assessed as inhibition of bacterial growth incubated for 24 hrs by broth microdilution method; assay type: functional
[5] = Cytotoxicity against human HepG2 cells assessed as reduction in cell viability measured after 48 hrs by CCK8 assay; assay type: toxicity, cell-based
Staphylococcus aureus [6] = assay: Antibacterial activity against methicillin-resistant Staphylococcus aureus 575 assessed as inhibition of bacterial growth incubated for 24 hrs by broth microdilution method; assay type: functional
Cell membrane [7] = assay: Disruption of bacterial cell membrane in methicillin-resistant Staphylococcus aureus ATCC 33591 assessed as severe depression on the cell surface,cell rupture and leakage of intracellular components at 4XMIC incubated for 4 hrs by FESEM analysis; assay type: subcellular
Metamycoplasma hominis = assay: Anti-mycoplasma activity against Mycoplasma hominis PG-21 ATCC23114 assessed as inhibition of mycoplasma growth measured after 7 days by broth microdilution method; assay type: functional; details: PG-21 ATCC23114, 168 h, time 7 day
Klebsiella pneumoniae = assay: Antibacterial activity against multidrug-resistant Klebsiella pneumoniae 893 assessed as inhibition of bacterial growth incubated for 24 hrs by broth microdilution method; assay type: functional
Escherichia coli [8] = assay: Antibacterial activity against Escherichia coli ATCC 25922 assessed as inhibition of bacterial growth incubated for 24 hrs by broth microdilution method; assay type: functional
Staphylococcus aureus [9] = assay: Antibacterial activity against methicillin-resistant Staphylococcus aureus ATCC 33591 infected in Kunming mouse assessed as animal survival rate at 3 mg/kg, ip for 7 days starting from 1 hr post-infection; assay type: functional; details: ATCC 33591, 168 h, time 7 day
Cell membrane [10] = assay: Disruption of bacterial cell membrane in Escherichia coli ATCC 25922 assessed as reduction in green fluorescence intensity at MIC incubated for 2 hrs by MycoLightGreen1198/PI staining based confocal laser scanning microscopy
Mycoplasmopsis synoviae [11] = assay: Potency index, ratio of tiamulin MIC to test compound MIC against anti-mycoplasma activity against Mycoplasma synoviae WVU1853 NCTC10124; assay type: functional
Pseudomonas aeruginosa = assay: Antibacterial activity against multidrug-resistant Pseudomonas aeruginosa 126 assessed as inhibition of bacterial growth incubated for 24 hrs by broth microdilution method; assay type: functional
Mesomycoplasma hyorhinis = assay: Anti-mycoplasma activity against Mycoplasma hyorhinis BTS-7 NCTC10130 assessed as inhibition of mycoplasma growth measured after 7 days by broth microdilution method; assay type: functional; details: BTS-7 NCTC10130, 168 h, time 7 day
Staphylococcus aureus [12] = assay: Antibacterial activity against methicillin-resistant Staphylococcus aureus ATCC 33591 infected in Kunming mouse assessed as animal survival rate at 5 mg/kg, ip for 7 days starting from 1 hr post-infection; assay type: functional; details: ATCC 33591, 168 h, time 7 day
[13] = tested on: Mesomycoplasma hyopneumoniae; assay: Anti-mycoplasma activity against Mycoplasma hyopneumoniae LH assessed as inhibition of mycoplasma growth measured after 7 days by broth microdilution method; assay type: functional; details: 168 h, time 7 day
Salmonella enterica = assay: Antibacterial activity against Salmonella enterica ATCC 14028 assessed as inhibition of bacterial growth incubated for 24 hrs by broth microdilution method; assay type: functional
[14] = tested on: Mycoplasmoides gallisepticum; assay: Anti-mycoplasma activity against Mycoplasma gallisepticum R NCTC10115 assessed as inhibition of mycoplasma growth measured after 7 days by broth microdilution method; assay type: functional; details: R NCTC10115, 168 h, time 7 day
Staphylococcus aureus [15] = assay: Antibacterial activity against methicillin-resistant Staphylococcus aureus ATCC 33591 assessed as inhibition of bacterial growth incubated for 24 hrs by broth microdilution method; assay type: functional
[16] = tested on: Mesomycoplasma hyopneumoniae; assay: Anti-mycoplasma activity against Mycoplasma hyopneumoniae J NCTC10110 assessed as inhibition of mycoplasma growth measured after 7 days by broth microdilution method; assay type: functional; details: J NCTC10110, 168 h, time 7 day
[17] = Drug metabolism in Sprague-Dawley rat plasma assessed as metabolite formation at 10 mg/kg, iv measured after 1 hr by UPLC/Q-TOF-MS analysis; assay type: ADME, organism-based; details: in vivo
Staphylococcus aureus [18] = assay: Antibacterial activity against methicillin-resistant Staphylococcus aureus 206 assessed as inhibition of bacterial growth incubated for 24 hrs by broth microdilution method; assay type: functional
[19] = Volume of distribution at steady state in Sprague-Dawley rat at 1 mg/kg, iv by LC-MS analysis; assay type: ADME, organism-based; details: in vivo, read-out: Vdss
Cell membrane [20] = assay: Disruption of bacterial cell membrane in methicillin-resistant Staphylococcus aureus ATCC 33591 assessed as increase in red fluorescence intensity at MIC incubated for 2 hrs by MycoLightGreen1198/PI staining based confocal laser scanning microscopy; assay type: subcellular
[21] = Cytotoxicity against human HEK293 cells assessed as reduction in cell viability measured after 48 hrs by CCK8 assay; assay type: toxicity, cell-based
Cell membrane [22] = assay: Disruption of bacterial cell membrane in Escherichia coli ATCC 25922 assessed as increase in red fluorescence intensity at MIC incubated for 2 hrs by MycoLightGreen1198/PI staining based confocal laser scanning microscopy
Acinetobacter baumannii = assay: Antibacterial activity against carbapenem-resistant Acinetobacter baumannii 882 assessed as inhibition of bacterial growth incubated for 24 hrs by broth microdilution method; assay type: functional
Mycoplasmopsis synoviae [23] = assay: Anti-mycoplasma activity against Mycoplasma synoviae WVU1853 NCTC10124 assessed as inhibition of mycoplasma growth measured after 7 days by broth microdilution method; assay type: functional; details: WVU1853 NCTC10124, 168 h, time 7 day
Cell membrane [24] = assay: Disruption of bacterial cell membrane in methicillin-resistant Staphylococcus aureus ATCC 33591 assessed as increase in fluorescence intensity by DiBAC4(3) dye based fluorescence analysis; assay type: subcellular
Cell membrane [25] = assay: Disruption of bacterial cell membrane in methicillin-resistant Staphylococcus aureus ATCC 33591 assessed as increase in fluorescence intensity at 8XMIC measured within 3 mins by DiBAC4(3) dye based fluorescence analysis relative to control; assay type: subcellular
Staphylococcus aureus [26] = assay: Bactericidal activity against methicillin-resistant Staphylococcus aureus ATCC 33591 assessed as reduction in bacterial colonies formation at 4XMIC incubated for 8 hrs in MHB followed by culturing on agar plate for 24 hrs by time-kill kinetics based analysis; assay type: functional; set-up: scale not given: the % may be the effect or the level left; details: time 32 hrs
Staphylococcus aureus [27] = assay: Antibacterial activity against methicillin-resistant Staphylococcus aureus 596 assessed as inhibition of bacterial growth incubated for 24 hrs by broth microdilution method; assay type: functional
Escherichia coli [28] = assay: Bactericidal activity against Escherichia coli ATCC 25922 assessed as reduction in bacterial colonies formation at 2XMIC incubated for 12 hrs in MHB followed by culturing on agar plate for 24 hrs by time-kill kinetics based analysis; assay type: functional; set-up: scale not given: the % may be the effect or the level left; details: time 36 hrs
[29] = MRT in Sprague-Dawley rat at 1 mg/kg, iv by LC-MS analysis; assay type: ADME, organism-based; details: in vivo
Cell membrane [30] = assay: Disruption of bacterial cell membrane in methicillin-resistant Staphylococcus aureus ATCC 33591 assessed as increase in number of surface folds and atrophy at MIC incubated for 4 hrs by FESEM analysis; assay type: subcellular

With `C=C[C@]1(C)C[C@@H](OC(=O)CSc2nc(-c3cc[n+](Cc4ccc(C)cc4)cc3)cs2)[C@]2(C)[C@H](C)CC[C@]3(CCC(=O)[C@H]32)[C@@H](C)[C@@H]1O.[Br-]` the Activity (Cell membrane [1]) was “Dose-Dependent Effect”, the “inhibition (INH)” value (Escherichia coli [2]) was 84.02% and the Activity (Cell membrane [3]) was “Active”. For the same compound, the solubility at 12 h [4] was 862 µM, the MIC (Enterococcus) was 2 µg/mL and the CC50 at 48 h [5] was 89.8 µM. For the same compound, the MIC (Staphylococcus aureus [6]) was 8 µg/mL, the Activity (Cell membrane [7]) was “Active” and the MIC (Metamycoplasma hominis) was 0.015 µg/mL. For the same compound, the MIC (Klebsiella pneumoniae) was 16 µg/mL, the MIC (Escherichia coli [8]) was 0.062 µg/mL and the survival at 3 mg/kg (Staphylococcus aureus [9]) was 42.9%. For the same compound, the Activity (Cell membrane [10]) was “Active”, the Ratio (Mycoplasmopsis synoviae [11]) was 10 and the MIC (Pseudomonas aeruginosa) was 64 µg/mL. It also gave an MIC (Mesomycoplasma hyorhinis) of 0.008 µg/mL, a survival at 5 mg/kg (Staphylococcus aureus [12]) of 57.1% and an MIC [13] of 0.002 µg/mL. The MIC (Salmonella enterica) was 2 µg/mL, the MIC [14] was 0.004 µg/mL and the MIC (Staphylococcus aureus [15]) was 1 µg/mL. For the same compound, the MIC [16] was 0.004 µg/mL, the Drug metabolism [17] was “Metabolite_Detected” and the MIC (Staphylococcus aureus [18]) was 2 µg/mL. For the same compound, the Vd [19] was 2.1 L/kg, the Activity (Cell membrane [20]) was “Active” and the CC50 at 48 h [21] was over 100 µM. For the same compound, the Activity (Cell membrane [22]) was “Active”, the MIC (Acinetobacter baumannii) was 8 µg/mL and the MIC (Mycoplasmopsis synoviae [23]) was 0.015 µg/mL. The Activity (Cell membrane [24]) was “Dose-Dependent Effect”, the fold change (FC) (Cell membrane [25]) was 6 and the Activity (Staphylococcus aureus [26]) was 100%. The MIC (Staphylococcus aureus [27]) was 2 µg/mL, the Activity (Escherichia coli [28]) was 100% and the MRT [29] was 34.8 min. For the same compound, the Activity (Cell membrane [30]) was “Active”.
